Data on one compound can be found in patent US9505796B2, “Phosphorylated A2A receptor agonists” (Crozet Medical GMBH, priority 2006, dated 2016).

SMILES strings stand for the structures.

In test [1] the test system is VCAM-1 mRNA expression in aortic ECs. The test is described as follows: VCAM-1 mRNA expression in cultured aortic ECs (PCR). It is filed as cell-based, mouse. The note with it: CD73−/− ECs, ATL-146e 10 μM for 6 hours. As for the experimental part:
(§1) Mouse aortal ECs were cultured as described. Six mL of type I rat tail collagen (4 mg/mL) combined with 0.1 M NaOH, 3.5 mL 3×DMEM and 5.25 mL of 1×DMEM supplemented with 30% FCS was aliquoted into a 24 well plate, allowed to gel at 37° C. for 1 hour and equilibrated overnight in complete EC medium: RPMI-1640 supplemented with 20% heat inactivated FCS, 2-mercaptoethanol (4 L/L), gentamicin (10 g/mL) and EC growth supplement (50 g/mL, BD Biosciences). Aortas from CD73^−/− or WT mice cut into circular rings were opened longitudinally and placed luminal side down onto the collagen gel. After 2 days, complete medium was added and changed every third day. After 10 days, aortic segments were removed and the collagen gel digested with 0.3% collagenase H. Then, ECs were grown in complete medium and used between passages 2-8. Some ECs were treated with ATL-146e (10 μM) for 6 hours. Mono Mac 6 cells were maintained as described.
RNA was prepared using the RNAqzeous-Micro isolation kit (Ambion) and RNeasy Mini kit (Qiagen) and reverse-transcribed into cDNA using Mo-MLV RT (Invitrogen).

The test system of test [2] is surface protein expression of VCAM-1 in aortic ECs. The test is described as follows: VCAM-1 surface protein expression in aortic ECs (flow cytometry). It is filed as cell-based, mouse. The following applies: ATL-146e 10 μM for 6 hours. How it is done: as §1, with “Mono Mac 6 cells were maintained as described.” left out
For immunofluorescence, confluent ECs on glass chamber slides were fixed in methanol, permeabilized with 0.5% triton and reacted with p65 (C-20, Santa Cruz) or isotype control and FITC-conjugated secondary Ab (Boehringer Mannheim). […] After incubation for 30 min at RT, primary Ab binding was detected using a FITCconjugated secondary Ab (Boehringer Mannheim) and analyzed in a FACSCalibur (BD Biosciences). Specific mean fluorescence intensity was determined by subtracting isotype control staining.

For test [3], the system named is arrest of Mono Mac 6 cells on aortic ECs. The test can be described thus: Adhesion assay: monocyte arrest on ECs under laminar flow. Format: cell-based, mouse. The following applies: ATL-146e 10 μM for 6 hours. As for the experimental part:
as §1
Laminar flow assays were performed as described. ECs were perfused with Mono Mac 6 cells (0.5×10^6/mL) pre-treated with or without anti-VLA-4 (10 g/mL, Immunotech) at 1.5 dyn/cm^2. The numbers of firmly arrested and rolling cells were quantified after 4 min in multiple (>10) fields by analyzing images recorded by video microscopy, and expressed as cells/mm^2

For test [4], the system named is wire-injured carotid arteries of WT and CD73−/− mice. The test can be described thus: Mouse model of carotid artery injury, neointima formation. Format: in vivo. The following applies: 4 weeks after injury, continuous infusion 0.004 μg/kg per minute. From the text: Male, 6-12 week old CD73^−/− or WT NMRI mice (n=6-8) were left untreated or fed an atherogenic diet containing 21% fat for one week before and up to 4 weeks after injury. Transluminal carotid artery injury was induced by 4 rotational passes of a 0.36-mm guide-wire. After 6 days of diet and one day before carotid injury, some mice (n=10 per group) were anesthetized and underwent implantation of a primed, 28-day osmotic pump (model 2004, Alza Corp) placed subcutaneously via transverse midscapular incision for continuous treatment with ATL (0.004 μg/kg per minute; 200 μL of 1% dimethyl sulfoxide in saline; kind gift from G. W. Sullivan and J. Linden, University of Virginia). Arteries were harvested by in situ perfusion fixation with 4% paraformaldehyde and embedded in paraffin. […]
Neointimal and medial areas were quantified in serial 5 μm sections of common carotid arteries within a standardized distance from the bifurcation (50-250 μm) stained with Movat pentachrome Areas within the external elastic lamina (EEL), internal elastic lamina (TEL) and lumen (L) were determined by computer-assisted planimetry (Diskus software, Hilgers). […] The relative content of macrophages in the neointima was determined in serial sections of the LCA within 300 μm from the bifurcation (6 per mouse, each 50 μm apart). […] Images were recorded using a Leica DMLB microscope and CCD camera. […]

Consider `CCNC(=O)[C@H]1O[C@@H](n2cnc3c(N)nc(C#CCC4CCC(C(=O)OC)CC4)nc32)[C@H](O)[C@@H]1O` (stereo partly shown) [ATL-146e], for which the “VCAM-1 mRNA expression” value in test [1] is recorded as “reduced the elevated VCAM-1 mRNA expression”. The “surface protein expression of VCAM-1” value in test [2] (CD73−/− ECs) is on record as “reversed the increased surface protein expression of VCAM-1”; in test [2] (WT ECs), “slightly diminished its expression”. Further, the monocyte arrest result in test [3] (CD73−/− ECs) was “inhibition of the monocyte arrest”; in test [3] (WT ECs), “not affected”. For the same compound, in test [4] (CD73−/− mice, vs control CD73−/− mice), the “neointimal hyperplasia in carotid arteries” value was “completely prevented neointimal hyperplasia”. For the same compound, the “neointima formation in carotid arteries” value in test [4] (WT mice, vs control WT mice) is reported as “significantly inhibited neointima formation”.
